From PubChem BioAssay (NCI)
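Dose response: 5 concentrations. Exposure: 48 h. Format: 96-well plates. Endpoint: linear interpolation; highest concentration if not reached. At the TGI there is no net growth.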

Legend:
Assay in all cases: DTP human tumour cell line panel, 48 h
[1] = system: 786-0 renal
[2] = system: A498 renal
[3] = system: A549 NSCLC
[4] = system: ACHN renal
[5] = system: BT-549 breast
[6] = system: CAKI-1 renal
[7] = system: CCRF-CEM leukemia
[8] = system: COLO 205 colon
[9] = system: DU-145 prostate
[10] = system: EKVX NSCLC
[11] = system: HCT-116 colon
[12] = system: HL-60(TB) leukemia
[13] = system: HOP-62 NSCLC
[14] = system: HOP-92 NSCLC
[15] = system: HS 578T breast
[16] = system: HT29 colon
[17] = system: IGROV1 ovarian
[18] = system: K-562 leukemia
[19] = system: KM12 colon
[20] = system: LOX IMVI melanoma
[21] = system: M14 melanoma
[22] = system: MALME-3M melanoma
[23] = system: MCF7 breast
[24] = system: MDA-MB-231 breast
[25] = system: MDA-MB-435
[26] = system: MDA-N
[27] = system: MOLT-4 leukemia
[28] = system: NCI-H23 lung
[29] = system: NCI-H460 lung
[30] = system: NCI-H522 lung
[31] = system: NCI/ADR-RES ovarian
[32] = system: OVCAR-3 ovarian
[33] = system: OVCAR-4 ovarian
[34] = system: OVCAR-5 ovarian
[35] = system: OVCAR-8 ovarian
[36] = system: PC-3 prostate
[37] = system: RPMI-8226 leukemia
[38] = system: RXF 393 renal
[39] = system: SF-268 CNS
[40] = system: SF-295 CNS
[41] = system: SK-MEL-2 melanoma
[42] = system: SK-MEL-28 melanoma
[43] = system: SK-MEL-5 melanoma
[44] = system: SK-OV-3 ovarian
[45] = system: SN12C renal
[46] = system: SNB-19 CNS
[47] = system: SNB-75 CNS
[48] = system: SR leukemia
[49] = system: SW-620 colon
[50] = system: T-47D breast
[51] = system: TK-10 renal
[52] = system: U251 CNS
[53] = system: UACC-257 melanoma
[54] = system: UACC-62 melanoma
[55] = system: UO-31 renal
[56] = system: HCT-15 colon
[57] = system: NCI-H226 lung

`C[N+](C)(C)c1ncnc2c1ncn2C1CCCCO1` (stereo unspecified) was tested, and the TGI [1] was greater than 100 µM, the TGI [2] was greater than 100 µM and the TGI [3] was greater than 100 µM. For the same compound, the TGI [4] was greater than 100 µM, the TGI [5] was greater than 100 µM and the TGI [6] was greater than 100 µM. The TGI [7] was greater than 100 µM, the TGI [8] was greater than 100 µM and the TGI [9] was greater than 100 µM. The TGI [10] was greater than 100 µM, the TGI [11] was greater than 100 µM and the TGI [12] was greater than 100 µM. For the same compound, the TGI [13] was greater than 100 µM, the TGI [14] was greater than 100 µM and the TGI [15] was greater than 100 µM. For the same compound, the TGI [16] was greater than 100 µM, the TGI [17] was greater than 100 µM and the TGI [18] was greater than 100 µM. For the same compound, the TGI [19] was greater than 100 µM, the TGI [20] was greater than 100 µM and the TGI [21] was greater than 100 µM. For the same compound, the TGI [22] was greater than 100 µM, the TGI [23] was greater than 100 µM and the TGI [24] was greater than 100 µM. For the same compound, the TGI [25] was greater than 100 µM, the TGI [26] was greater than 100 µM and the TGI [27] was greater than 100 µM. For the same compound, the TGI [28] was greater than 100 µM, the TGI [29] was greater than 100 µM and the TGI [30] was greater than 100 µM. It also gave a TGI [31] greater than 100 µM, a TGI [32] greater than 100 µM and a TGI [33] greater than 100 µM. The TGI [34] was greater than 100 µM, the TGI [35] was greater than 100 µM and the TGI [36] was greater than 100 µM. It also gave a TGI [37] greater than 100 µM, a TGI [38] greater than 100 µM and a TGI [39] greater than 100 µM. For the same compound, the TGI [40] was greater than 100 µM, the TGI [41] was greater than 100 µM and the TGI [42] was greater than 100 µM. The TGI [43] was greater than 100 µM, the TGI [44] was greater than 100 µM and the TGI [45] was greater than 100 µM. It also gave a TGI [46] greater than 100 µM, a TGI [47] greater than 100 µM and a TGI [48] greater than 100 µM. The TGI [49] was greater than 100 µM, the TGI [50] was greater than 100 µM and the TGI [51] was greater than 100 µM. The TGI [52] was greater than 100 µM, the TGI [53] was greater than 100 µM and the TGI [54] was greater than 100 µM. For the same compound, the TGI [55] was greater than 100 µM.

For `CC(C)Oc1cc(O)c2c(c1)OCC=C2CCC(=O)O`, the TGI [1] was greater than 100 µM, the TGI [2] was 56.6 µM and the TGI [3] was greater than 100 µM. The TGI [4] was greater than 100 µM, the TGI [5] was greater than 100 µM and the TGI [6] was greater than 100 µM. For the same compound, the TGI [7] was 43.3 µM, the TGI [8] was 31.2 µM and the TGI [9] was greater than 100 µM. For the same compound, the TGI [10] was 91.2 µM, the TGI [11] was 66.5 µM and the TGI [56] was 66.2 µM. For the same compound, the TGI [12] was 42 µM, the TGI [13] was greater than 100 µM and the TGI [14] was 76.6 µM. The TGI [15] was greater than 100 µM, the TGI [16] was 53.1 µM and the TGI [17] was greater than 100 µM. It also gave a TGI [18] greater than 100 µM, a TGI [19] greater than 100 µM and a TGI [20] greater than 100 µM. For the same compound, the TGI [21] was 98.6 µM, the TGI [23] was 40.2 µM and the TGI [24] was greater than 100 µM. For the same compound, the TGI [25] was 66 µM, the TGI [26] was 54.7 µM and the TGI [27] was 91 µM. It also gave a TGI [57] of 69.8 µM, a TGI [28] greater than 100 µM and a TGI [29] greater than 100 µM. It also gave a TGI [30] of 59.3 µM, a TGI [31] greater than 100 µM and a TGI [32] greater than 100 µM. It also gave a TGI [33] greater than 100 µM, a TGI [34] greater than 100 µM and a TGI [35] greater than 100 µM. For the same compound, the TGI [36] was greater than 100 µM, the TGI [37] was 69.3 µM and the TGI [38] was greater than 100 µM. The TGI [39] was greater than 100 µM, the TGI [40] was greater than 100 µM and the TGI [41] was greater than 100 µM. It also gave a TGI [42] greater than 100 µM, a TGI [43] of 36.5 µM and a TGI [44] greater than 100 µM. For the same compound, the TGI [45] was 69.3 µM, the TGI [46] was greater than 100 µM and the TGI [47] was greater than 100 µM. It also gave a TGI [48] greater than 100 µM, a TGI [49] greater than 100 µM and a TGI [50] greater than 100 µM. For the same compound, the TGI [51] was 76.8 µM, the TGI [52] was greater than 100 µM and the TGI [53] was 61.4 µM. It also gave a TGI [54] greater than 100 µM and a TGI [55] of 89.1 µM.
